# Source: publication PMC11544091 (Nature Communications, 2024)
# Molecular target: T1, human A3R (Homo sapiens, UniProt P0DMS8)
# T1 sequence (P0DMS8 1-318): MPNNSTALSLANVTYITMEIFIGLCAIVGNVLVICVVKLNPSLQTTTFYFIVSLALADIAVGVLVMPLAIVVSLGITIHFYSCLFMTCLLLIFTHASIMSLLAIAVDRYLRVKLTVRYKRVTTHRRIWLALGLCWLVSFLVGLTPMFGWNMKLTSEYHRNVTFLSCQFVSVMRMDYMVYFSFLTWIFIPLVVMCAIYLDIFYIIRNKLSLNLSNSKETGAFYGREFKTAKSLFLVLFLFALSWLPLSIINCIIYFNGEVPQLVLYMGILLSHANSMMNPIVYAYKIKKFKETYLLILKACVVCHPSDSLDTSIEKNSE
# Assay: TGFα shedding assay, human A3R WT
# Assay type: cell-based
# Conditions: for activation of A3R (in words): human A3R
calculated intrinsic activity (RAi) relative to adenosine (A3R),activation of A3R (in words),"potency towards all four adenosine receptors (in words) (A1R, A2AR, A2BR, A3R)",Compound
7%,very weak activation of A3R,,"CN(C)c1ncnc2c1ncn2[C@@H]1O[C@H](CO)[C@@H](O)[C@H]1O [m6,6A, N6,N6-Dimethyladenosine]"
59%,selectively activates A3R,,"CC(C)=CCNc1ncnc2c1ncn2[C@@H]1O[C@H](CO)[C@@H](O)[C@H]1O [i6A, N6-Isopentenyladenosine]"
,can also induce A3R activation,weak and non-selective potency,1-methyladenosine [m^1A]
,did not show any potency on A3R,,"C[C@@H](O)[C@H](NC(=O)Nc1ncnc2c1ncn2[C@@H]1O[C@H](CO)[C@@H](O)[C@H]1O)C(=O)O [t6A, N6-Threonylcarbamoyladenosine]"
